45 compounds from patent publication US20250129031A1, “1,2,3-TRIAZOLE CARBONYL SULFONYLAMIDE COMPOUNDS AND USE THEREOF” (PI INDUSTRIES LTD., priority 2022, published 2025) can be followed below.

In the assay the test system is Meloidogyne incognita. The assay can be described thus: Meloidogyne incognita test: gall rating on cucumber plants in pots after soil application. In kind it is in vivo. To be noted: 1000 ppm applied to soil inoculated with 5000 eggs & J2s; cucumber seedlings; rated 30 days after application; 0-10 scale (Zeck 1971); untreated check up to 8. Set-up: key: 0: no galls; 1: very few small galls; 2: numerous small galls; 3: numerous small galls of which some are grown together; 4: numerous small and some big galls; 25% of roots severely galled; 6: 50% of roots severely galled; 75% of roots severely galled; 8: no healthy roots but plant is still green; 9: roots rotting and plant dying; 10: plant and roots dead. The protocol:
Meloidogyne incognita Test:
The trial pots were filled with soil containing a mixture of sand:soil:cocopeat in a ratio of 1:1:1. To the soil of each pot 5 mL of a nematode suspension (Meloidogyne incognita, mix of 5000 eggs & J2s) was added. One hour later the respective test compound at the stated concentration was applied to each pot. 10 days old cucumber seedlings were transplanted into the pots one day after the application. The cucumber plants were allowed to grow at a temperature of 27° C. under greenhouse conditions. The evaluation of the gall rating was recorded 30 days after the application. The plants were carefully uprooted and the roots were thoroughly washed. The gall rating was done on a 0-10 scale as described by Zeck (1971) and shown below: • 0=no galls • 1=very few small galls • 2=numerous small galls • 3=numerous small galls of which some are grown together • 4=numerous small and some big galls • 5=25% of roots severely galled • 6=50% of roots severely galled • 7=75% of roots severely galled • 8=no healthy roots but plant is still green • 9=roots rotting and plant dying • 10=plant and roots dead

As to `O=C(NS(=O)(=O)c1cc(C(F)(F)F)ccc1Cl)c1nnn(-c2ccc(OC(F)(F)F)cc2Cl)c1C1CC1` [Compound 227, 1-(2-chloro-4-(trifluoromethoxy)phenyl)-N-((2-chloro-5-(trifluoromethyl)phenyl)sulfonyl)-5-cyclopropyl-1H-1,2,3-triazole-4-carboxamide], the gall rating scale was determined as 4.

On to `O=C(NS(=O)(=O)c1cc(C(F)(F)F)ccc1Cl)c1nnn(-c2ccc(C(F)(F)F)cc2Cl)c1C(F)(F)F` [Compound 76], for which the gall rating scale turned out to be 4.

In the case of `COc1ccc(Cl)c(S(=O)(=O)NC(=O)c2nnn(-c3ccc(C#N)cc3Cl)c2C)c1` [Compound 260], the gall rating scale came to 4.

In turn, `Cc1c(C(=O)NS(=O)(=O)c2ccccc2C(F)(F)F)nnn1-c1ccc(F)cc1Cl` [Compound 245] had a gall rating scale of 4.

As to `Cc1ccc(F)cc1S(=O)(=O)NC(=O)c1nnn(-c2ccc(C#N)cc2Cl)c1C` [Compound 516, 1-(2-chloro-4-cyanophenyl)-N-((5-fluoro-2-methylphenyl)sulfonyl)-5-methyl-1H-1,2,3-triazole-4-carboxamide], the gall rating scale is on record as 4.

As to `CCc1c(C(=O)NS(=O)(=O)c2cc(C)ccc2C)nnn1-c1ccc(OC(F)(F)F)cc1Cl` [Compound 337, 1-(2-chloro-4-(trifluoromethoxy)phenyl)-N-((2,5-dimethylphenyl)sulfonyl)-5-ethyl-1H-1,2,3-triazole-4-carboxamide], the gall rating scale worked out at 4.

Compound `O=C(NS(=O)(=O)c1cc(C(F)(F)F)ccc1Cl)c1nnn(-c2ccc(Cl)cc2Cl)c1C(F)(F)F` [Compound 210] came in with a gall rating scale of 4.

`O=C(NS(=O)(=O)c1cc(C(F)(F)F)ccc1Cl)c1nnn(-c2ccc(F)cc2Cl)c1C(F)(F)F` [Compound 364, 1-(2-chloro-4-fluorophenyl)-N-((2-chloro-5-(trifluoromethyl)phenyl)sulfonyl)-5-(trifluoromethyl)-1H-1,2,3-triazole-4-carboxamide] showed a gall rating scale of 4.

Consider `Cc1ccc(C)c(S(=O)(=O)NC(=O)c2nnn(-c3ccc(C(F)(F)F)cc3Cl)c2C)c1` [Compound 670], for which the gall rating scale turned out to be 4.

With `Cc1c(C(=O)NS(=O)(=O)c2ccccc2C(F)(F)F)nnn1-c1ccc(OC(F)(F)F)cc1Cl` [Compound 132], the gall rating scale is recorded as 4.

`Cc1c(C(=O)NS(=O)(=O)c2cc(Cl)c(F)cc2F)nnn1-c1ccc(F)cc1Cl` [Compound 250] displayed a gall rating scale of 4.

On to `COc1ccc(Cl)c(S(=O)(=O)NC(=O)c2nnn(-c3ccc(Cl)cc3F)c2C(F)(F)F)c1` [Compound 630], for which the gall rating scale worked out at 4.

Compound `Cc1cc(S(=O)(=O)NC(=O)c2nnn(-c3ccc(C#N)cc3Cl)c2C)c(C)cc1Cl` [Compound 460] had a gall rating scale of 4.

On to `Cc1c(C(=O)NS(=O)(=O)c2ccccc2C(F)(F)F)nnn1-c1cc(Cl)cc(Cl)c1` [Compound 254], for which the gall rating scale was 4.

The compound `COc1ccc(Cl)cc1S(=O)(=O)NC(=O)c1nnn(-c2ccc(Cl)cc2Cl)c1C(F)(F)F` [Compound 598] yielded a gall rating scale of 4.

`COc1ccc(Cl)c(S(=O)(=O)NC(=O)c2nnn(-c3ccc(Cl)cc3C(F)(F)F)c2C)c1` [Compound 61]: the gall rating scale turned out to be 4.

Compound `CCc1c(C(=O)NS(=O)(=O)c2ccccc2F)nnn1-c1ccc(F)cc1Cl` [Compound 378, 1-(2-chloro-4-fluorophenyl)-5-ethyl-N-((2-fluorophenyl)sulfonyl)-1H-1,2,3-triazole-4-carboxamide] returned a gall rating scale of 4.

The compound `Cc1ccc(C)c(S(=O)(=O)NC(=O)c2nnn(-c3ccc(Cl)cc3F)c2C)c1` [Compound 433] came in with a gall rating scale of 4.

As to `Cc1c(C(=O)NS(=O)(=O)c2cc(C(F)(F)F)ccc2Br)nnn1-c1ccc(Cl)cc1F` [Compound 432], the gall rating scale was found to be 4.

`Cc1ccc(C)c(S(=O)(=O)NC(=O)c2nnn(-c3ccc(C#N)cc3Cl)c2C(F)(F)F)c1` [Compound 389, 1-(2-chloro-4-cyanophenyl)-N-((2,5-dimethylphenyl)sulfonyl)-5-(trifluoromethyl)-1H-1,2,3-triazole-4-carboxamide] registered a gall rating scale of 4.

`Cc1c(C(=O)NS(=O)(=O)c2cc(Cl)ccc2Cl)nnn1-c1ccc(C#N)cc1Cl` [Compound 316, 1-(2-chloro-4-cyanophenyl)-N-((2,5-dichlorophenyl)sulfonyl)-5-methyl-1H-1,2,3-triazole-4-carboxamide] showed a gall rating scale of 4.

`O=C(NS(=O)(=O)c1cc(Cl)ccc1Cl)c1cn(-c2cc(Cl)cc(Cl)c2)nn1` [Compound 2, 1-(3,5-dichlorophenyl)-N-((2,5-dichlorophenyl)sulfonyl)-1H-1,2,3-triazole-4-carboxamide]: the gall rating scale is recorded as 4.

Compound `CCc1c(C(=O)NS(=O)(=O)c2ccccc2Cl)nnn1-c1ccc(OC(F)(F)F)cc1Cl` [Compound 338, 1-(2-chloro-4-(trifluoromethoxy)phenyl)-N-((2-chlorophenyl)sulfonyl)-5-ethyl-1H-1,2,3-triazole-4-carboxamide] displayed a gall rating scale of 4.

As for `Cc1c(C(=O)NS(=O)(=O)c2cc(F)cc(F)c2)nnn1-c1ccc(OC(F)F)cc1Cl` [Compound 673], the gall rating scale turned out to be 4.

Regarding `Cc1ccc(C)c(S(=O)(=O)NC(=O)c2nnn(-c3ccc(OC(F)(F)F)cc3Cl)c2C)c1` [Compound 217], the gall rating scale came to 4.

`Cc1c(C(=O)NS(=O)(=O)c2cc(F)ccc2F)nnn1-c1ccc(C#N)cc1Cl` [Compound 269] gave a gall rating scale of 4.

`Cc1c(C(=O)NS(=O)(=O)c2cc(F)ccc2F)nnn1-c1ccc(OC(F)F)cc1Cl` [Compound 674]: the gall rating scale is 4.

`Cc1c(C(=O)NS(=O)(=O)c2cc(C(F)(F)F)ccc2Cl)nnn1-c1ccc(OC(F)(F)F)cc1Cl` [Compound 135] yielded a gall rating scale of 4.

In the case of `CCc1c(C(=O)NS(=O)(=O)c2ccccc2F)nnn1-c1ccc(OC(F)(F)F)cc1Cl` [Compound 339, 1-(2-chloro-4-(trifluoromethoxy)phenyl)-5-ethyl-N-((2-fluorophenyl)sulfonyl)-1H-1,2,3-triazole-4-carboxamide], the gall rating scale is recorded as 4.

The compound `COc1ccc(Cl)c(S(=O)(=O)NC(=O)c2nnn(-c3ccc(C#N)cc3F)c2C(F)(F)F)c1` [Compound 538, N-((2-chloro-5-methoxyphenyl)sulfonyl)-1-(4-cyano-2-fluorophenyl)-5-(trifluoromethyl)-1H-1,2,3-triazole-4-carboxamide] had a gall rating scale of 4.

In turn, `Cc1c(C(=O)NS(=O)(=O)c2cc(Cl)ccc2Cl)nnn1-c1cc(Cl)cc(Cl)c1` [Compound 8, 1-(3,5-dichlorophenyl)-N-((2,5-dichlorophenyl)sulfonyl)-5-methyl-1H-1,2,3-triazole-4-carboxamide] returned a gall rating scale of 4.

In turn, `Cc1c(C(=O)NS(=O)(=O)c2cc(C(F)(F)F)ccc2Cl)nnn1-c1ccc(C#N)cc1Cl` [Compound 315] returned a gall rating scale of 4.

Take `O=C(NS(=O)(=O)c1ccccc1C(F)(F)F)c1nnn(-c2ccc(Cl)cc2Cl)c1C(F)(F)F` [Compound 209]: the gall rating scale was 4.

The compound `O=C(NS(=O)(=O)c1ccccc1C(F)(F)F)c1nnn(-c2ccc(F)cc2F)c1C(F)(F)F` [Compound 736] came in with a gall rating scale of 4.

On to `Cc1c(C(=O)NS(=O)(=O)c2cc(C(F)(F)F)ccc2Cl)nnn1-c1ccc(Cl)cc1F` [Compound 446], for which the gall rating scale worked out at 4.

Take `O=C(NS(=O)(=O)c1ccccc1C(F)(F)F)c1nnn(-c2ccc(Cl)cc2F)c1C(F)(F)F` [Compound 640]: the gall rating scale is 4.

Regarding `Cc1c(C(=O)NS(=O)(=O)c2c(F)cc(F)cc2F)nnn1-c1ccc(OC(F)F)cc1Cl` [Compound 675], the gall rating scale is recorded as 4.

Compound `Cc1cc(S(=O)(=O)NC(=O)c2nnn(-c3ccc(Cl)cc3Cl)c2C)c(C)cc1Cl` [Compound 280, N-((4-chloro-2,5-dimethylphenyl)sulfonyl)-1-(2,4-dichlorophenyl)-5-methyl-1H-1,2,3-triazole-4-carboxamide] showed a gall rating scale of 4.

In turn, `Cc1ccc(C)c(S(=O)(=O)NC(=O)c2nnn(-c3ccc(OC(F)F)cc3Cl)c2C)c1` [Compound 667] yielded a gall rating scale of 4.

`Cc1c(C(=O)NS(=O)(=O)c2ccccc2Cl)nnn1-c1ccc(C#N)cc1Cl` [Compound 272] came in with a gall rating scale of 4.

In turn, `Cc1c(C(=O)NS(=O)(=O)c2ccccc2F)nnn1-c1ccc(Cl)cc1F` [Compound 445] displayed a gall rating scale of 4.

Consider `COc1ccc(C)cc1S(=O)(=O)NC(=O)c1nnn(-c2ccc(OC(F)(F)F)cc2Cl)c1C(F)(F)F` [Compound 590], for which the gall rating scale was 4.

Regarding `Cc1c(C(=O)NS(=O)(=O)c2cc(C(F)(F)F)ccc2F)nnn1-c1ccc(Cl)cc1Cl` [Compound 240], the gall rating scale came to 4.

Take `N#Cc1ccc(-n2nnc(C(=O)NS(=O)(=O)c3ccccc3OC(F)(F)F)c2C(F)(F)F)c(Cl)c1` [Compound 395, 1-(2-chloro-4-cyanophenyl)-N-((2-(trifluoromethoxy)phenyl)sulfonyl)-5-(trifluoromethyl)-1H-1,2,3-triazole-4-carboxamide]: the gall rating scale is recorded as 4.

Turning to `Cc1c(C(=O)NS(=O)(=O)c2cc(Cl)ccc2Cl)nnn1-c1ccc(C#N)cc1F` [Compound 410], the gall rating scale is 4.
